Data reported in patent US9447028B2, “Therapeutic aryl-amido-aryl compounds and their use” (King's College London, priority 2009, dated 2016).

How the values were obtained:
Format in all cases: cell-based
RARα = molecular target: T1, RARα (Homo sapiens, UniProt P10276); experiment: Transactivation assay for RAR alpha (gal4-RAR fusion, luciferase reporter, COS-7 cells); conditions: for RARα/RARβ ratio (*): fold-selectivity for RARα over RARβ; for RARα activity ratio: ratio of test compound EC50 to that of atRA on the same plate
T1 construct: gal4 (fusion partner); expressed in transfected cells; host or cells: COS-7
T1 sequence (P10276 183-417 limits assumed): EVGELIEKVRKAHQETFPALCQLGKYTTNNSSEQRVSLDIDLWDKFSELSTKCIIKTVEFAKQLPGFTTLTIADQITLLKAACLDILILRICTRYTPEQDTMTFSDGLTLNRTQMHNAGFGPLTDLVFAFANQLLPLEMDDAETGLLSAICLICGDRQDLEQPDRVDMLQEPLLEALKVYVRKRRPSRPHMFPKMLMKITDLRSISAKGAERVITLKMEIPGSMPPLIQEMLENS
Description: (§1) Transcriptional transactivation assays were performed with gal4 fusion receptor constructs, created using each of the RAR ligand binding domains, co-transfected with the pFR-luc (Stratagene™) reporter construct in COS-7 cells.
(§2) Briefly, on day 1, 96 well plates were seeded with 8000 cells per well then left to recover overnight. On day 2, the cells were co-transfected with 100 ng of reporter plasmid and 10 ng of the appropriate receptor plasmid per well using lipofectamine (Invitrogen™). On day 3, the lipofectamine containing media was replaced by a DMEM without phenol red, followed by the addition of test compound dissolved in 1 μL of DMSO to each well's 100 μL total volume. Finally, on day 4, the cells were lysed and their luciferase substrate was provided by the BrightGlo™ reagent (Promega™), the plates were then read on the MicroBeta TriLux™ (Perkin Elmer™).
(§3) Where replicate data has been generated, the data are quoted as a ratio of the mean EC50 from the separate experiments.

RARβ = molecular target: T2, RARβ (Homo sapiens, UniProt P10826); experiment: Transactivation assay for RAR beta (gal4-RAR fusion, luciferase reporter, COS-7 cells); conditions: ratio of test compound EC50 to that of atRA; inactive = no agonist action at the highest concentration tested
T2 construct: gal4 (fusion partner); expressed in transfected cells; host or cells: COS-7
T2 sequence (P10826 183-417 limits assumed): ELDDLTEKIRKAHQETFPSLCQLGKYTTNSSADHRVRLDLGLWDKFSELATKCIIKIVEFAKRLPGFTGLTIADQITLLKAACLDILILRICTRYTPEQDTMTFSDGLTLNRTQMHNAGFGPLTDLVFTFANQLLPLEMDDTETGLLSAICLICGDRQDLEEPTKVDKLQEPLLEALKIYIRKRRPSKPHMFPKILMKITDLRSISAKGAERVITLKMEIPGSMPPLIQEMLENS
Description: as §1, §2, §3

RARγ = molecular target: T3, RARγ (Homo sapiens, UniProt P13631); experiment: Transactivation assay for RAR gamma (gal4-RAR fusion, luciferase reporter, COS-7 cells); conditions: ratio of test compound EC50 to that of atRA; inactive = no agonist action at the highest concentration tested
T3 construct: gal4 (fusion partner); expressed in transfected cells; host or cells: COS-7
T3 sequence (P13631 185-419 limits assumed): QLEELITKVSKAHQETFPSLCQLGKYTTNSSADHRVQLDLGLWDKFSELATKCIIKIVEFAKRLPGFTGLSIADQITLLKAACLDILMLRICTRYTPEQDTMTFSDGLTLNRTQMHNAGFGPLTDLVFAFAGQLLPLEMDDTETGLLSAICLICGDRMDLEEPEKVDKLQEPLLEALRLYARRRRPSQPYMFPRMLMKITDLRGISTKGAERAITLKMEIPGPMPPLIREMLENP
Description: as §1, §2, §3

SMILES	RARα/RARβ ratio (*) (RARα)	RARα activity ratio (RARα)	RARβ activity ratio (RARβ)	RARγ activity ratio (RARγ)
CCOc1c(Cl)cc(C(=O)Nc2ccc(C(=O)O)c(O)c2)cc1Cl [AAA-057, 4-(3,5-Dichloro-4-ethoxybenzamido)-2-hydroxybenzoic acid]	37	33	1226	4920
CCOc1c(OC2CCCC2)cc(C(=O)Nc2ccc(C(=O)O)cc2)cc1OC1CCCC1 [AAA-058, 4-(3,5-Bis(cyclopentyloxy)-4-ethoxybenzamido)benzoic acid]	145	29	4200	550
CC(C)Oc1cc(C(=O)Nc2ccc(C(=O)O)cc2)cc(OC(C)C)c1OC(C)C [AAA-059, 4-(3,4,5-Triisopropoxybenzamido)benzoic acid]	96	27	2600	225
CC(C)(C)Oc1cc(C(=O)Nc2ccc(C(=O)O)cc2)cc(OC(C)(C)C)c1OC(C)(C)C [AAA-060, 4-(3,4,5-Tri-tert-butoxybenzamido)benzoic acid]	50	45	2267	30
CCOc1c(OC(C)C)cc(C(=O)Nc2ccc(C(=O)O)c(C)c2)cc1OC(C)C [AAA-061, 4-(4-Ethoxy-3,5-diisopropoxybenzamido)-2-methylbenzoic acid]	118	44	5200	1531
COc1c(OC(C)C)cc(C(=O)Nc2ccc(C(=O)O)cc2)cc1OC(C)C [AAA-062, 4-(3,5-Diisopropoxy-4-methoxybenzamido)benzoic acid]	8	85	714	5328
COc1c(OC(C)C)cc(C(=O)Nc2ccc(C(=O)O)c(C)c2)cc1OC(C)C [AAA-063, 4-(3,5-Diisopropoxy-4-methoxybenzamido)-2-methylbenzoic acid]	22	76	1686	6429
CCOc1c(OC(C)C)cc(C(=O)Nc2ccc(C(=O)O)c(F)c2)cc1OC(C)C [AAA-064, 4-(3,5-Diisopropoxy-4-ethoxybenzamido)-2-fluorobenzoic acid]	>40	81	>3500	1977
COc1c(Cl)cc(C(=O)Nc2ccc(C(=O)O)cn2)cc1C(F)(F)F [AAA-065, 6-(3-Chloro-4-methoxy-5-(trifluoromethyl)benzamido)nicotinic acid]	9	15	140	3521
COc1c(Cl)cc(C(=O)Nc2ccc(C(=O)O)cc2F)cc1C(F)(F)F [AAA-067, 4-(3-Chloro-4-methoxy-5-(trifluoromethyl)benzamido)-3-fluorobenzoic acid]	6	50	279	6047
CCOc1c(Cl)cc(C(=O)Nc2ccc(C(=O)O)c(F)c2)cc1C(F)(F)F [AAA-068, 4-(3-Chloro-4-ethoxy-5-(trifluoromethyl)benzamido)-2-fluorobenzoic acid]	140	7	976	60833
CC(C)Oc1c(Cl)cc(C(=O)Nc2ccc(C(=O)O)c(F)c2)cc1C(F)(F)F [AAA-069, 4-(3-Chloro-4-isopropoxy-5-(trifluoromethyl)benzamido)-2-fluorobenzoic acid]	421	1.2	505	3380
COc1c(Cl)cc(C(=O)Nc2ccc(C(=O)O)c(O)c2)cc1C(F)(F)F [AAA-070, 4-(3-Chloro-4-methoxy-5-(trifluoromethyl)benzamido)-2-hydroxybenzoic acid]	701	3.4	2386	>62500
CCOc1c(Br)cc(C(=O)Nc2ccc(C(=O)O)c(C)c2)cc1C(F)(F)F [AAA-071, 4-(3-Bromo-4-ethoxy-5-(trifluoromethyl)benzamido)-2-methylbenzoic acid]	31	5.2	160	13333
CCOc1c(F)cc(C(=O)Nc2ccc(C(=O)O)cc2)cc1F [AAA-073, 4-(4-Ethoxy-3,5-difluorobenzamido)benzoic acid]	6	19	117	220
Cc1cc(NC(=O)c2cc(F)c(OC(C)C)c(Cl)c2)ccc1C(=O)O [AAA-074, 4-(3-Chloro-5-fluoro-4-isopropoxybenzamido)-2-methylbenzoic acid]	210	154	32400	14500
COc1c(Cl)cc(C(=O)Nc2ccc(C(=O)O)c(C)c2)cc1OC(C)C [AAA-075, 4-(3-Chloro-5-isopropoxy-4-methoxybenzamido)-2-methylbenzoic acid]	241	4.7	1134	2394
COc1c(Cl)cc(C(=O)Nc2ccc(C(=O)O)c(F)c2)cc1OC(C)C [AAA-077, 4-(3-Chloro-5-isopropoxy-4-methoxybenzamido)-2-fluorobenzoic acid]	609	6.7	4082	117857
CCOc1c(Cl)cc(C(=O)Nc2ccc(C(=O)O)c(F)c2)cc1OC(C)C [AAA-079, 4-(3-Chloro-4-ethoxy-5-isopropoxybenzamido)-2-fluorobenzoic acid]	487	1.1	536	6786
CCOc1c(Cl)cc(C(=O)Nc2ccc(C(=O)O)c(C)c2)cc1OC(C)C [AAA-080, 4-(3-Chloro-4-ethoxy-5-isopropoxybenzamido)-2-methylbenzoic acid]		1.6	318	17460
CCOc1c(Cl)cc(C(=O)Nc2ccc(C(=O)O)c(O)c2)cc1OC(C)C [AAA-081, 4-(3-Chloro-4-ethoxy-5-isopropoxybenzamido)-2-hydroxybenzoic acid]	161	9.0	1453	>27000
CCOc1c(Cl)cc(C(=O)Nc2ccc(C(=O)O)nn2)cc1OC(C)C [AAA-082, 6-(3-Chloro-4-ethoxy-5-isopropoxybenzamido)pyridazine-3-carboxylic acid]	275	25	6885	>56000
COc1cc(C(=O)Nc2ccc(C(=O)O)cc2)cc(Cl)c1OC(C)C [AAA-083, 4-(3-Chloro-4-isopropoxy-5-methoxybenzamido)benzoic acid]	10	9	90	4390
CCOc1c(Cl)cc(C(=O)Nc2ccc(C(=O)O)cc2)cc1OC [AAA-084, 4-(3-Chloro-4-ethoxy-5-methoxybenzamido)benzoic acid]	234	26	6087	>1400
CCOc1c(Cl)cc(C(=O)Nc2ccc(C(=O)O)c(C)c2)cc1OC [AAA-085, 4-(3-Chloro-4-ethoxy-5-methoxybenzamido)-2-methylbenzoic acid]	210	33	6923	>8300
CCOc1cc(C(=O)Nc2ccc(C(=O)O)cc2)cc(Cl)c1OC(C)C [AAA-086, 4-(3-Chloro-5-ethoxy-4-isopropoxybenzamido)benzoic acid]	3.1	2.1	7	1203
